Test results reported in patent US5877185A, “Synergistic compositions useful as anti-tumor agents” (priority 1995, dated 1999).
Where two headings read alike, the source gives them in different places.

Key:
E ras cells = assay: cytostatic and cytocidal activity; format: cell-based, bovine; details: for IC50: Bos taurus, average of three trials; for cytostatic and cytocidal effects: at the concentrations given above
Excerpt: pADPRT ligands that oxidize CCHC zinc fingers are not unique inhibitors of pADPRT. […] Hakam et al., FEBS Lett. 193:1-4 (1991). These ligands bind non-covalently to the nicotinamide site and internal DNA-seeking domains of pADPRT. Bauer et al., manuscript in preparation (1994). In contrast, CCHC-oxidizing ligands also bind non-covalently to the nicotinamide site, but initially attack the F1 zinc finger oxidatively. Id. […] Id. […] U.S. Ser. No. 08/076,313 filed Jun. 11, 1993.
Each value is the average of three trials. Each trial deviated from the average by no more than twenty percent. […] Another isomer of the iodo-nitro-benzamide series, 2-iodo-4-nitrobenzamide had no effect at the concentrations given above.

[1] = solubility and stability of nitro versus nitroso compound; format: physicochemical
HIV-1 (LAV strain) = assay: in vitro anti-retroviral testing (HIV-1 inactivation) in human peripheral lymphocytes (PBL); format: cell-based
Protocol: Both 6-NOBP and NOBA were tested on viral growth of HIV-1 (LAV strain) in phytohemagglutinin-stimulated human peripheral lymphocytes (PBL). An HIV-1 stock having an infectivity titer of 100,000 TCID50 was incubated for 30 min. at 22° C. with either of the drugs. Control HIV samples, containing no drugs, were incubated in the same manner. […] At the end of this incubation cultures were assayed for productive infection by an immunoassay for HIV-1 antigens and by reverse transcriptase as described in McDougal et al., J. Immunol. Methods 76:171-183 (1985). Virus titers were expressed as percentile values (percent infected cultures) compared to the controls, containing HIV dilutions which were not preincubated with the C-nitroso drugs. In a separate series of experiments, HIV-1 dilutions and C-nitroso drugs (see upper abscissa) were not preincubated but were added simultaneously to lymphocytes in exactly the same concentrations as described previously (i.e., following preincubation) and viral growth monitored 9 days later.

[2] = tested on: L-1210 Murine Leukemia Cells; assay: effect of nitroso- and nitro-compounds in L-1210 murine leukemia cells (suspension); format: cell-based; details: drug exposure 18 hours
Protocol: II. I50 and LD100 Values for Nitroso- and Nitro-Compounds in (A) Mammary Cancer Cells (monolayer cultures) and in (B) L-1210 Murine Leukemia Cells (suspension culture).
Cells were seeded at 5×10^4 to 2×10^5 /ml; drugs were added at the time of seeding; drug exposure was for 18 hours.

L-1210 cells = assay: time course of cell killing alone and with BSO, L-1210; format: cell-based, murine; details: L-1210, 2-3 day period; 1 mM BSO
Protocol: (§1) Molt 4-cells were seeded at a density of 0.05×10^6 cell/ml in the recommended growth medium in the absence or the presence of drugs as indicated. Cells were incubated at 37° C. in a 5% CO2 atmosphere and proliferation was monitored in 14 hr. by cell counting in a hemacytometer. .smallcircle., untreated control; .circle-solid., treated with 4 μM 4-iodo-3-nitrobenzoic acid; .gradient., treated with 1 mM BSO; .tangle-soliddn., treated with 4 μM-iodo-3-nitrobenzoic acid and 1 mM BSO; .quadrature., treated with 4 μM 4-INO2 BA; .box-solid., treated with 1 mM BSO; .gradient., treated with 4 μM INO2 BA and 1 mM BSO. L-1210 cells were seeded at a density of 0.05×10^6 cells/ml either from untreated stock suspensions or from 24-hr. pretreated (0.2×10^6 cells/ml) suspensions. .smallcircle., untreated control; .circle-solid., treated with […] NOBA; .gradient., treated with 1 mM BSO; .tangle-soliddn., 24-hr pretreatment with 1 mM BSO then treated with 4 μM NOBA.
(§2) A time course of the cell killings by 4-iodo-3-nitrobenzoic acid, INO2 BA and NOBA, each alone and in combination with BSO was obtained. Molt-4 cells were seeded at a density of 0.05×10^6 cells/ml in the recommended growth medium in the absence or presence of drugs as indicated in FIG. 3. Drugs were added to the wells immediately after seeding from 10-40 mM stock solution in DMSO. BSO was added from a 100 mM aqueous stock solution. Cells were incubated at 37° C. in a 5% CO2 atmosphere and proliferation was monitored in 14 hours by cell counting in a hemacytometer.

Molt-4 cells = assay: time course of cell killing alone and with BSO, Molt-4; format: cell-based; details: Molt-4, 2-3 day period; 4 μM drug, 1 mM BSO
Protocol: as §1, §2

MT-2 cells = assay: effectiveness on human T-lymphoblastoid leukemia cells, MT-2; format: cell-based; details: for IC50: Homo sapiens, MT2, concentration decreasing cell viability to 50% of control, 48 h incubation, read-out: I50; for LD100: zero viability after 48 hours of incubation
Protocol: (§3) IV. Effectiveness of 4-(halogen)-3-nitro-benzamide compounds as tested with human T-lymphoblastoid leukemia cell lines in culture.
(§4) Cells (MT-2 cells, or, in case of 3-fluoro-4-nitro-benzamide, CEM-4 cells) were seeded at a density of 0.1×10^5 /ml; the drugs were added at the time of seeding. The cultures were incubated at 37° C. in a 5% CO2 atmosphere and the cells numbers were monitored by hemacytometer counting in 24 hr intervals.

AA-2 leukemia cells = assay: cytocidal effect in combination with ascorbate
Protocol: Because of the in vitro reactivity of the nitroso group of INOBA with both ascorbate and GSH, the apoptosis-inducing effect of NOBA with the action of the prodrug INO2 BA in the presence of ascorbate, added simultaneously with both drugs was compared.
AA-2 cells were seeded at a density of 0.2×10^6 cells/ml. Drugs and/or sodium ascorbate were added at the time of seeding, and cells were counted by hemacytometer after incubation (37° C., 5% CO^2) for 18 hr (Day 1) and for 42 hr (Day 2). Viability was evaluated by Trypan Blue exclusion.

[3] = tested on: leukemic and other malignant human cells; details: cited from earlier work
neutrophil granulocytes = details: tumoricidal concentrations; cited from earlier work
[4] = tested on: normal bone marrow progenitor cells; details: tumoricidal concentrations; cited from earlier work
[5] = tested on: human immunodeficiency virus HIV-1; details: human lymphocytes; cited from earlier work
HIV-1 NC zinc fingers = details: isolated HIV-1 NC zinc fingers and intact HIV-1 virions; cited from earlier work
CEM-4 cells = assay: effectiveness on human T-lymphoblastoid leukemia cells, CEM-4; format: cell-based
Protocol: as §3, §4

Compound: NC(=O)c1cc([N+](=O)[O-])ccc1I [2-iodo-5-nitrobenzamide]
- IC50 (E ras cells; E ras cells, read-out: Cytostatic Effect I50): 12 µM
- IC50 (E ras cells; with 0.8 mM BSO, read-out: Cytocidal Effect I50): 2 µM
- cytostatic and cytocidal effects (E ras cells): more effective of the two isomers

Compound: O=c1ccc2cc([N+](=O)[O-])ccc2o1 [NO2 BP, 6-Nitro-1,2-benzopyrone]
- stability and solubility [1]: more stable and soluble than the active nitroso compound
- inhibition of HIV-1 activity in human lymphocytes (HIV-1 (LAV strain)): 52%
- TCID50 (calculated infectious titer after treatment) (HIV-1 (LAV strain); 500 μM): 85,114 TCID50
- inhibition at 500 µM (HIV-1 (LAV strain); Human immunodeficiency virus 1, Lymphocyte): 52.1%
- log reduction at 500 µM (HIV-1 (LAV strain); Human immunodeficiency virus 1, Lymphocyte, 0.5 h, read-out: Decrease): 0.32
- I50 [2]: 35 nanomoles/10^5 cells
- LD100 [2]: 80 nanomoles/10^5 cells

Compound: O=C(O)c1ccc(I)c([N+](=O)[O-])c1 [4-iodo-3-nitrobenzoic acid]
- effect on cell proliferation (L-1210 cells): no significant effect
- effect on cell proliferation (Molt-4 cells): no significant effect
- I50 [2]: 16 nanomoles/10^5 cells
- LD100 [2]: 32 nanomoles/10^5 cells

Compound: NC(=O)c1ccc(Br)c([N+](=O)[O-])c1 [4-bromo-3-nitro-benzamide]
- IC50 (MT-2 cells): 120 µM
- LD100 (MT-2 cells): 290

Compound: NC(=O)c1ccc([N+](=O)[O-])cc1I [2-iodo-4-nitrobenzamide]
- cytostatic and cytocidal effects (E ras cells): no effect

Compound: O=C1O[C@H]([C@@H](O)CO)C([O-])=C1O.[Na+] [Ascorbate, sodium ascorbate, reference compound]
- effect on AA-2 leukemia cells by itself (AA-2 leukemia cells; 160 μM): no effect
- cell number Day 1 (AA-2 leukemia cells; ascorbate 160 μM, 18 hr): 480000 mL⁻¹
- cell number Day 2 (AA-2 leukemia cells; ascorbate 160 μM, 42 hr): 900000 mL⁻¹

Compound: NC(=O)c1ccc(Cl)c([N+](=O)[O-])c1 [4-chloro-3-nitro-benzamide]
- IC50 (MT-2 cells): 130 µM
- LD100 (MT-2 cells): 300

Compound: O=Nc1ccc2oc(=O)ccc2c1 [NOBP, 6-nitroso-1,2-benzopyrone]
- suppression of proliferation [3]: completely suppressed
- effect on superoxide formation by neutrophil granulocytes (neutrophil granulocytes): relatively harmless
- effect on normal bone marrow progenitor cells [4]: relatively harmless
- stability and solubility [1]: poorly soluble
- inhibition of HIV-1 infection [5]: inhibit infection
- TCID50 (calculated infectious titer after treatment) (HIV-1 (LAV strain); 100 μM): 102 TCID50
- log reduction at 100 µM (HIV-1 (LAV strain); Human immunodeficiency virus 1, Lymphocyte, 0.5 h, 100 μM, of TCID50, read-out: Decrease): 3.24
- inhibition at 100 µM (HIV-1 (LAV strain); Human immunodeficiency virus 1, Lymphocyte, 100 μM): 99.9%
- zinc ejection (HIV-1 NC zinc fingers): eject zinc

Compound: NC(=O)c1ccc(F)c([N+](=O)[O-])c1 [4-fluoro-3-nitro-benzamide]
- IC50 (CEM-4 cells; Homo sapiens, concentration decreasing cell viability to 50% of control, read-out: I50): 120 µM
- LD100 (CEM-4 cells; zero viability after 48 hours of incubation): 280
